Data on 4 molecules can be found in patent publication US20040048380A1, “Chimeric vectors and their use for heterologous genes transfer” (priority 2003, published 2004).

The subject of test [1] is HeLa cells. In words: Transduction efficiency by GFP reporter gene expression (FACS). The class given is cell-based. The conditions noted are these: peptide 4.86 μM, molar excess of about 2000 times; FIG. 5b. On the procedure:
FIG. 5. Chimeric phages transduce eukaryotic cells in a receptor-dependent way. Cells are incubated for 1 hour at 4° C. and for 3 hours at 37° C. with 2×10^13 particles of Pb-GFP phage or ΔPb-GFP phage. After 72 hours said cells are analyzed with FACS. For competition tests they are pre-incubated with GRGDSP or GRGESP peptides (4.86 μM, corresponding to a molar excess of about 2000 times) for 1 hour at 4° C. and then incubated with chimeric phages. Data are analyzed with WinMDI2.8 software. 10^4 cells for each well are counted. a) White bars correspond to ΔPb-GFP phages; b) striped bars correspond to Pb-GFP b) phage.
The expression of GFP reporter gene (Green Fluorescent Protein) was carried out by FACS analysis as follows: 1×10^5 cells (HeLa, Cs-1/β3 or Cs-1) were plated in 6-portion wells. […] After the washings and 72 hours of incubation in fresh medium the expression levels of GFP protein were measured by FACS. The specificity of the measured signal was evaluated also in presence of GRGDSP or GRGESP peptides, pre-incubating the cells for 1 hour, with peptide concentration of 4.86 μM, corresponding to a molar excess of about 2000 times and maintaining said concentrations in the following incubations. 10^4 cells were measured for each sample. […]

The test system of test [2] is HeLa cells. In words: Phage micropanning, internalization (37° C.), with or without kinase inhibitors. The settings on record: Wortammannin 1 μM, ML-7 2 μM, FIG. 4. It is filed as cell-based. An excerpt:
FIG. 4. Effect of the inhibitors of Wortammanin and ML-7 kinases on cell internalization. 10^12 particles of ΔPb phage (white bars) or of Pb phage (striped bars) are adsorbed on HeLa cells. The internalized phage is recovered and titrated. […] Data are shown as percentages of control enrichments carried out without inhibitors. Th results are average values of three different tests carried out in two series; SD (Standard Deviation) is also shown.
The micropanning on HeLa and CS-1 or CS-1/β3 cells was carried out […] at 4° C. and at 37° C. in order to quantify the bond and the internalization of chimeric phages, respectively. […] The eluates were titrated by ELISA on a plate coated with an anti-M13 antibody detected with anti-pVIII-HRP antibody, using as standard a phage stock with known titer.
Phage internalization was evaluated on cells which have been pre-incubated for 30′ at 37° C. with chlorokine 100 nM (Sigma) alone or together with an inhibitor of PI3K (phosphatidylinositol-3OH kinase), 1 μM Wortammannin (Sigma) or with an inhibitor of myosin light chain kinase ML-7 2 μM hydrochloride (Calbiochem, La Jolla, Calif.). […]
In short, the experiment was carried out as follows: 7.5×10^4 cells/well are plated and incubated with 10^12 chimeric phage particles. The results are expressed as enrichment factors with respect to control phages. […]

Regarding GRGDSP, in the test with HeLa cells [1], the “inhibition of the transduction of HeLa cells by ΔPb-GFP phage” value was “up to 90%”.

For `COC[C@H]1OC(=O)c2coc3c2[C@@]1(C)C1=C(C3=O)[C@@H]2CCC(=O)[C@@]2(C)C[C@H]1OC(C)=O` [Wortammannin], the “effect of kinase inhibitor on internalization of Pb and ΔPb chimeric phages” value with HeLa cells [2] is “inhibited”.

In the case of `O=S(=O)(c1cccc2c(I)cccc12)N1CCCNCC1` [ML-7], in the test with HeLa cells [2], the “effect of kinase inhibitor on internalization of Pb and ΔPb chimeric phages” value is “not”.

In the case of GRGESP, the “inhibition of the transduction of HeLa cells by ΔPb-GFP phage” value with HeLa cells [1] is listed as “not observed”.
